Broadly, the melting point is the temperature, or range, at which the solid turns liquid.

In turn, `CCOC(=O)CS(=O)(=O)Cc1cccc(-c2c(CC(=O)Nc3ccc(F)cc3C(F)(F)F)c(=O)oc3cc(Cl)c(C)cc23)c1` [Example 64, Ethyl ({3-[7-chloro-3-(2-{[4-fluoro-2-(trifluoromethyl)phenyl]amino}-2-oxoethyl)-6-methyl-2-oxo-2H-chromen-4-yl]benzyl}sulfonyl)acetate] yielded a melting point of 230 to 231 °C.

`Cc1cc2c(-c3cccc(CCc4nnn[nH]4)c3)c(CC(=O)Nc3ccc(F)cc3C(F)(F)F)c(=O)oc2cc1Cl` [Example 98] registered a melting point of 244 to 246 °C.

On to `Cc1cc2c(-c3cccc(-c4noc(=O)[nH]4)c3)c(CC(=O)Nc3ccc(F)cc3C(F)(F)F)c(=O)oc2cc1Cl` [Example 99, 2-{7-chloro-6-methyl-2-oxo-4-[3-(5-oxo-4,5-dihydro-1,2,4-oxadiazol-3-yl)phenyl]-2H-chromen-3-yl}-N-[4-fluoro-2-(trifluoromethyl)phenyl]acetamide], for which the melting point lay in the range of 285 to 287 °C.

For the molecule `Cc1cc2c(-c3cccc(Cc4noc(=O)[nH]4)c3)c(CC(=O)Nc3ccc(F)cc3C(F)(F)F)c(=O)oc2cc1Cl` [Example 100], the melting point is 161 to 164 °C.

Consider `Cc1cc2c(-c3cccc(Cc4noc(=O)[nH]4)c3)c(CC(=O)Nc3ccccc3C(F)(F)F)c(=O)oc2cc1Cl` [Example 101], for which the melting point was 295 °C (dec.).

Turning to `Cc1cc2c(-c3cccc(-c4noc(=S)[nH]4)c3)c(CC(=O)Nc3ccc(F)cc3C(F)(F)F)c(=O)oc2cc1Cl` [Example 102, 2-{7-chloro-6-methyl-2-oxo-4-[3-(5-thioxo-4,5-dihydro-1,2,4-oxadiazol-3-yl)phenyl]-2H-chromen-3-yl}-N-[4-fluoro-2-(trifluoromethyl)phenyl]acetamide], the melting point lay within 178 to 180 °C.

Regarding `Cc1cc2c(-c3cccc(-c4nsc(=O)[nH]4)c3)c(CC(=O)Nc3ccc(F)cc3C(F)(F)F)c(=O)oc2cc1Cl` [Example 104, 2-{7-chloro-6-methyl-2-oxo-4-[3-(5-oxo-4,5-dihydro-1,2,4-thiadiazol-3-yl)phenyl]-2H-chromen-3-yl}-N-[4-fluoro-2-(trifluoromethyl)phenyl]acetamide], the melting point was 269 to 271 °C (dec.).

`COC(=O)c1cccc(-c2c(CC(=O)Nc3ccc(F)cc3C(F)(F)F)c(=O)oc3cc(Cl)c(CN4CCN(c5ccccc5)CC4)cc23)c1` [Example 108]: the melting point fell in the range of 135 to 137 °C.

Molecule `COC(=O)c1cccc(-c2c(CC(=O)Nc3ccc(Cl)cc3C(F)(F)F)c(=O)oc3cc(Cl)c(CN4CCN(c5ccccc5)CC4)cc23)c1` [Example 109] gave a melting point of 130 to 132 °C.

Take `Cc1cc2c(-c3cccc(C(=O)NC(C)C)c3)c(CC(=O)Nc3ccc(Cl)cc3C(F)(F)F)c(=O)oc2cc1Cl` [Example 121]: the melting point is 215 to 217 °C.

`Cc1cc2c(-c3cccc(C(=O)NC(C)(C)C)c3)c(CC(=O)Nc3ccc(Cl)cc3C(F)(F)F)c(=O)oc2cc1Cl` [Example 122] showed a melting point of 206 to 208 °C.

The values above are taken from US20070179154A1, “Coumarin derivatives, process for their production and use thereof” (Takeda Pharmaceutical Company Limited, priority 2002, published 2007).
